# Test results reported in patent US8475940B2, “Anthracene derivative and light-emitting device” (Toppan Printing Co., Ltd., priority 2009, dated 2013).
# “And” between values parts separate entries of the source, which are not always exact repeats. Identical values can stand only once.
# Assays:
# [1] = Energy level: ionization potential of spin coat film by surface analyzer AC-1, electron affinity by subtracting absorption-edge energy; assay type: physicochemical; conditions: for electron affinity: ionization potential minus absorption-edge energy; for ionization potential: spin coat film on ITO glass, surface analyzer AC-1; for Eg: energy difference between ionization potential and electron affinity
# Protocol: (§1) A solution prepared by dissolving 1.3 mg of the compound 1 in 1 ml of toluene was applied to an ITO transparent electroconductive glass by spin coating to measure the ionization potential by a surface analyzer AC-1 manufactured by Riken Keiki Co., Ltd., to find that the ionization potential was 5.9 eV.
# A solution prepared by dissolving 10 mg of the isomer component 1 of the compound 2 in 1 ml of toluene was applied to an ITO transparent electroconductive glass by spin coating to measure the ionization potential by a surface analyzer AC-1 manufactured by Riken Keiki Co., Ltd., to find that the ionization potential was 5.9 eV.
# as §1, with “10” for “1.3”, “eV. The electron affinity obtained by subtracting the absorption-edge energy from the ionization potential was 3.0 eV.” for “eV.”
# as §1, with “dissolving 10” for “dissolving 1.3”, “compound 31” for “compound 1”, “was 6.2” for “was 5.9”, “eV. The electron affinity obtained by subtracting absorption-edge energy from the ionization potential was 3.0 eV.” for “eV.”
# as §1, with “dissolving 10” for “dissolving 1.3”, “compound 32” for “compound 1”, “was 6.2” for “was 5.9”, “eV. The electron affinity obtained by subtracting absorption-edge energy from the ionization potential was 3.0 eV.” for “eV.”
# [2] = Thermal analysis by DSC (glass transition temperature); assay type: physicochemical; conditions: for thermal stability: second heatup after rapid cooling, no exothermic or endothermic peak except Tg
# Protocol: The glass transition temperature (Tg), crystallization temperature (Tc), and melting point (Tm) of the compound 1 were measured by EXSTAR6000 Series DSC6200 manufactured by Seiko Instruments Inc., at a temperature rise rate of 20° C./min. […] Tm was 493° C. to 513° C. (peak 504° C.).
# The glass transition temperature (Tg), crystallization temperature (Tc), and melting point (Tm) of the isomer component 1 of the compound 2 were measured by an EXSTAR6000Series DSC6200 manufactured by Seiko Instruments Inc., at a temperature rise rate of 20° C./min.
# The Tg, Tc, and Tm of the compound 33 measured by DSC were 240° C., 323° C., and 403° C. respectively.
# [3] = Optical deterioration of fluorescent intensity of film under 340 nm irradiation; assay type: physicochemical; conditions: irradiated with 340 nm light for 1,000 sec, slit 1.5 nm
# Protocol: A film of the ink was formed on an ITO transparent electroconductive glass by spin coating and the fluorescent spectrum intensity was measured by a fluorophotometer (trade name: RF-5300PC, manufactured by Shimadzu Corporation) at an excitation spectrum of 340 nm.
# Using a fluorophotometer (trade name: RF-5300PC, manufactured by Shimadzu Corporation) wherein the width of the slit for excitation light was changed to 1.5 nm, this light emitting film was successively irradiated with light having a wavelength of 340 nm for 1,000 sec, with the result that a single film of the isomer component 1 of the compound 2 was decreased in fluorescent intensity to 57% of the initial intensity and the single film of BTrSBF was decreased to 64% of the initial intensity whereas the film obtained by doping BTrSBF with 5 wt % of the compound 2 kept 74% of the initial intensity, showing that this film had the effect of suppressing the optical deterioration of fluorescent intensity.
# [4] = Solubility in toluene / organic solvents at ambient temperature; assay type: physicochemical; conditions: for solubility (concentration dissolved in toluene): ambient temperature; for solubility in organic solvents: aromatic solvents such as xylene, anisole, tetralin
# Protocol: The compound 1 was dissolved with a concentration of 1.3 mg in 1 ml of toluene at ambient temperature and used as a light-emitting dopant for a blue light-emitting layer ink, which could be applied to form a film.
# The isomer component 1 of compound 2 was dissolved in a concentration of 34 mg in 1 ml of toluene at ambient temperature and used for ink that formed each layer of an organic EL as a carrier transport layer, each color light-emitting host and light-emitting dopant, thereby enabling the formation of a coating film.
# The compound 3 was dissolved in a concentration of 150 mg in 1 ml of toluene at ambient temperature and used for ink that formed each layer of an organic EL as a carrier transport layer, each color light-emitting host, or blue light-emitting dopant, thereby enabling the formation of a coating film.
# Further, the compound 31 can be dissolved in various mixture solvents to be matched with the viscosities of various printing systems.
# The compound 32 was soluble in a concentration of 6 mg in 1 ml of toluene at ambient temperature. When the compound 32 was gradually added to dissolve while heating on a hot plate, 34 mg of the compound 32 was dissolved when the temperature was returned to ambient temperature. The compound 32 can be used as an electron transportable carrier transport material and may be dissolved in an organic solvent such as toluene, xylene, anisole, and tetralin to add the obtained solution to ink for forming each layer of an organic EL, thereby forming a coating film.
# [5] = background section, DSC; cited from earlier work
# [6] = Fluorescent spectrum of spin coat film (fluorophotometer RF-5300PC); assay type: physicochemical; conditions: for fluorescent peak wavelength: single-compound spin coat film on ITO transparent electroconductive glass, excitation 330-340 nm
# Protocol: The fluorescent spectrum of a spin coat film of the compound 31 on an ITO transparent electroconductive glass was measured. The results correspond to a graph (0 wt %) of FIG. 8. The measurement was made by a fluorophotometer (trade name: RF-5300PC, manufactured by Shimadzu Corporation). The compound 31 emitted blue light having a fluorescent peak wavelength of 422 nm.
# First, a fluorescent spectrum obtained when a film formed in a thickness of 41 nm by applying a solution of the compound 32 to the surface of an ITO transparent electroconductive glass by spin coating was excited by 340 nm light was obtained (solid line in FIG. 10). The measurement was made by a fluorophotometer (trade name: RF-5300PC, manufactured by Shimadzu Corporation). Blue light emission having a fluorescent peak wavelength of 424 nm was obtained.
# A fluorescent spectrum obtained when a film was formed in the same manner as above by doping the compound 32 with 5 wt % of the compound 2 was measured in the same manner as above. The results are shown by the dotted line in FIG. 10. The fluorescent peak wavelength was 453 nm and pure blue light emission was obtained which was more intensified than the case where the compound 32 was not doped with the compound 2.
# Xylene solutions containing only the compound 31, only the compound 33, and a mixture of the compound 31:compound 33:compound 3 (10:2:1 ratio by weight) such that each solid content was 2 wt % were respectively applied to a quarts plate by spin coating (rotated at 500 rpm for 5 sec and then at 1200 rpm for 60 sec) to form films having almost the same thickness, thereby measuring a fluorescent spectrum.
electron affinity [1],ionization potential [1] [eV],thermal stability [2],solubility (concentration dissolved in toluene) ([4]; toluene),fluorescent peak wavelength [6] [nm],Compound,further results
2.9 eV,5.9,thermally very stable,34 mg in 1 ml,,"Cc1ccc2c(-c3ccccc3-c3ccc(-c4nc(-c5ccc(C(C)(C)C)cc5)nc(-c5ccc(C(C)(C)C)cc5)n4)cc3)c3ccccc3c(-c3ccccc3-c3ccc(-c4nc(-c5ccc(C(C)(C)C)cc5)nc(-c5ccc(C(C)(C)C)cc5)n4)cc3)c2c1 (single isomer, unassigned) [isomer component 1 of the compound 2, 2-methyl-9,10-bis{4-[2,4-bis(4-tert-butylphenyl)-1,3,5-triazine-6-yl]biphenyl-2′-yl}-anthracene]",fluorescent intensity remaining [3]: 57 % of the initial intensity
,,,,,"CC(C)(C)c1ccc2c(-c3ccccc3-c3ccccc3)c3ccccc3c(-c3ccccc3-c3ccccc3)c2c1 [TBBPA, 9,10-di(biphenyl-2-yl)-2-t-butylanthracene]",glass transition temperature (Tg) of prior-art material [5]: about 74 °C
,,,,,"CC(C)(C)c1ccc2c(-c3ccc4ccccc4c3)c3ccccc3c(-c3ccc4ccccc4c3)c2c1 [TBDNA, 9,10-di(2-naphthyl)-2-tertiarybutylanthracene]",glass transition temperature (Tg) of prior-art material [5]: about 128 °C
2.9 eV and 3.0 eV,5.9,,1.3 mg in 1 ml,448,"CC(C)(C)c1ccc(-c2nc(-c3ccc(-c4ccccc4-c4c5ccccc5c(-c5ccccc5-c5ccc(-c6nc(-c7ccc(C(C)(C)C)cc7)nc(-c7ccc(C(C)(C)C)cc7)n6)cc5)c5ccccc45)cc3)nc(-c3ccc(C(C)(C)C)cc3)n2)cc1 [compound 1, 9,10-bis{4-[2,4-bis(4-tert-butylphenyl)-1,3,5-triazine-6-yl]biphenyl-2′-yl}anthracene]",
,,,,454,"Cc1ccc2c(-c3ccccc3-c3ccc(-c4nc(-c5ccc(C(C)(C)C)cc5)nc(-c5ccc(C(C)(C)C)cc5)n4)cc3)c3ccccc3c(-c3ccccc3-c3ccc(-c4nc(-c5ccc(C(C)(C)C)cc5)nc(-c5ccc(C(C)(C)C)cc5)n4)cc3)c2c1 [compound 2, 2-methyl-9,10-bis{4-[2,4-bis(4-tert-butylphenyl)-1,3,5-triazine-6-yl]biphenyl-2′-yl}anthracene]",Eg [1]: about 2.9 eV
,,thermally very stable,150 mg in 1 ml,453,"CC(C)(C)c1ccc(-c2nc(-c3ccc(-c4ccccc4-c4c5ccccc5c(-c5ccccc5-c5ccc(-c6nc(-c7ccc(C(C)(C)C)cc7)nc(-c7ccc(C(C)(C)C)cc7)n6)cc5)c5cc(C(C)(C)C)ccc45)cc3)nc(-c3ccc(C(C)(C)C)cc3)n2)cc1 [compound 3, 2-tert-butyl-9,10-bis{4-[2,4-bis(4-tert-butylphenyl)-1,3,5-triazine-6-yl]biphenyl-2′-yl}anthracene]",
3.0 eV,6.2,thermally stable glass-like material,0.4 g in 1 ml,422,"CC(C)(C)c1ccc(-c2nc(-c3ccc(-c4ccc5c(c4)C4(c6ccccc6-5)c5ccccc5-c5ccc(-c6ccc(-c7nc(-c8ccc(C(C)(C)C)cc8)nc(-c8ccc(C(C)(C)C)cc8)n7)cc6)cc54)cc3)nc(-c3ccc(C(C)(C)C)cc3)n2)cc1 [compound 31, 2,2′-bis(4-(2,4-bis(4-tert-butylphenyl)-1,3,5-triazine-6-yl)phenyl)-9,9′-spirobifluorene]",Eg [1]: 3.2 eV; fluorescent intensity remaining [3]: 64 % of the initial intensity; solubility in organic solvents ([4]; toluene): easily soluble
3.0 eV,6.2,,6 mg in 1 ml,424,Cc1ccc(-c2nc(-c3ccc(C)cc3)nc(-c3ccc(-c4ccc5c(c4)C4(c6ccccc6-5)c5ccccc5-c5ccc(-c6ccc(-c7nc(-c8ccc(C)cc8)nc(-c8ccc(C)cc8)n7)cc6)cc54)cc3)n2)cc1 [compound 32],"amount dissolved after heating on a hot plate and return to ambient temperature ([4]; 1 ml of toluene, gradually added while heating, returned to ambient temperature): 34 mg"
2.8 eV,6.2,,,,"CC(C)(C)c1ccc2c(c1)c1cc(C(C)(C)C)ccc1n2-c1ccc(-c2cc(-c3ccc(-n4c5ccc(C(C)(C)C)cc5c5cc(C(C)(C)C)ccc54)cc3)cc(-c3ccc(-n4c5ccc(C(C)(C)C)cc5c5cc(C(C)(C)C)ccc54)cc3)c2)cc1 [compound 33, 1,3,5-tris(4-(3,6-di-tert-butyl-N-carbazolyl)phenyl)benzene]","glass transition temperature (Tg) ([2]; DSC, temperature rise rate 20° C./min): 240 °C; fluorescent peak ([6]; spin coat film from xylene solution on quartz plate): 380 nm; solubility in organic solvents ([4]; toluene): easily soluble; amount dissolved in general organic solvent ([4]; toluene, xylene, tetralin or mixture solvent): ≥ 10 wt %"
